In paper PMC6448587 (Biochemistry, 2019):
Read-outs that look alike come from different tables or passages of the source. Blank lines part the entries; values can stand above or below the compound they belong to.

Tests used:
S119A mutant of CYP3A4 [1] = biological target: T1, S119A mutant of CYP3A4 (Homo sapiens, UniProt P08684, S119A)
[2] = pH 7.5; cited from earlier work
R212A mutant of CYP3A4 [3] = biological target: T2, R212A mutant of CYP3A4 (Homo sapiens, UniProt P08684, R212A)
Δ3–22 human CYP3A4 (WT) [4] = biological target: T3, Δ3–22 human CYP3A4 (WT) (Homo sapiens, UniProt P08684)
full-length human CYP3A4 [5] = biological target: T4, full-length human CYP3A4 (Homo sapiens, UniProt P08684)
R212A mutant of CYP3A4 [6] = biological target: T2, R212A mutant of CYP3A4; experiment: biochemical
S119A mutant of CYP3A4 [7] = biological target: T1, S119A mutant of CYP3A4; experiment: biochemical
full-length human CYP3A4 [8] = biological target: T4, full-length human CYP3A4; remark: listed apart in the source
Δ3–22 human CYP3A4 (WT) [9] = biological target: T3, Δ3–22 human CYP3A4 (WT); experiment: biochemical
Candida albicans CYP51 [10] = conditions: read-out: Kd for Candida albicans CYP51; cited from earlier work
CYP3A4 [11] = biological target: CYP3A4 (Homo sapiens, UniProt P08684); conditions: human, probe 7-benzyloxy-4-(trifluoromethyl)coumarin (BFC)
CYP3A4 [12] = conditions: ref 39 (Godamudunage et al.); cited from earlier work
Candida albicans CYP51 [13] = conditions: read-out: IC50 for Candida albicans CYP51; cited from earlier work

Structure (SMILES): O=S(=O)(F)Cc1ccccc1 [PMSF, phenylmethylsulfonyl fluoride]
- High-spin shift relative to WT (S119A mutant of CYP3A4 [1]; S119A variant): ~ 30 % of WT
- Fold decrease in binding affinity by mutation (S119A mutant of CYP3A4 [1]; S119A vs WT): 4 fold
- t1/2 in aqueous solutions [2]: 55 min
- Fold decrease in binding affinity by mutation (R212A mutant of CYP3A4 [3]; R212A vs WT): 4 fold
- Type of spectral changes induced during equilibrium titrations (Δ3–22 human CYP3A4 (WT) [4]; WT CYP3A4): type I

- Spectral changes in the presence of ligand (S119A mutant of CYP3A4 [1]): neither mutant exhibits spectral changes
- Spectral changes in the presence of ligand (R212A mutant of CYP3A4 [3]): neither mutant exhibits spectral changes
- Fold lower affinity for CYP3A4 than PMSF (Δ3–22 human CYP3A4 (WT) [4]): ~ 6 fold
- Type of spectral changes induced during equilibrium titrations (Δ3–22 human CYP3A4 (WT) [4]): type I
- Kd (Δ3–22 human CYP3A4 (WT) [4]; pH 7.4): 15400 ± 2060 µM
- Effect on CYP3A4 activity (inhibitory assays), in words (full-length human CYP3A4 [5]): only negligibly affects CYP3A4 activity
- IC50 (full-length human CYP3A4 [5]): > 20000 µM
Structure (SMILES): O=S(=O)(O)Cc1ccccc1 [PMSA, phenylmethanesulfonic acid]

- Kd (R212A mutant of CYP3A4 [6]): 1.6 ± 0.1 µM
- Decrease in ΔAmax relative to WT (S119A mutant of CYP3A4 [1]; S119A vs WT): 9%
- Increase in Ks relative to WT (S119A mutant of CYP3A4 [1]; S119A vs WT): 42%
- Kd (S119A mutant of CYP3A4 [7]): 3.4 ± 0.1 µM
- Decrease in Ks relative to WT (R212A mutant of CYP3A4 [3]; R212A vs WT): 33%
- Decrease in ΔAmax relative to WT (R212A mutant of CYP3A4 [3]; R212A vs WT): 6%
- IC50 (full-length human CYP3A4 [8]): 18 ± 2 µM
- IC50 estimate relative to that for microsomal CYP3A4 (fold higher) (full-length human CYP3A4 [8]; reconstituted system vs microsomal CYP3A4 (ref 21)): 3 fold
- Kd (Δ3–22 human CYP3A4 (WT) [9]): 2.4 ± 0.1 µM
- Type of spectral changes induced during equilibrium titrations (Δ3–22 human CYP3A4 (WT) [4]; WT CYP3A4): type II
Structure (SMILES): CC(C)(C(=O)c1cccnc1)c1cccnc1 [Metyrapone]

Structure (SMILES): OC(Cn1cncn1)(Cn1cncn1)c1ccc(F)cc1F [Fluconazole]
- Kd (Candida albicans CYP51 [10]): 0.047 µM
- IC50 (CYP3A4 [11]): 21 µM
- IC50 (Candida albicans CYP51 [13]): 0.6 to 1.2 µM
